Toxic doses and inconclusive results are not listed.
Test system: P388 leukemia ip, CD2F1 mice, survival T/C
Experiment: NCI In Vivo Anticancer Drug Screen. Data for tumor model P388 Leukemia (intraperitoneal) in CD2F1 (CDF1) mice
Settings: endpoint: median survival time, higher = longer survival
Outline: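 Mice carrying the transplanted tumor received test compound or vehicle. Survival was recorded in each group, and the value is the treated-group measurement divided by that of the vehicle-treated control group.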

## Cc1ccc(NC(=O)Oc2ccc(Cl)cc2Cl)c([N+](=O)[O-])c1
dose: 50.0 mg/kg/injection, schedule: Q01DX009 (ip), vehicle: gum acacia
  T/C: 109 % of control
dose: 100.0 mg/kg/injection, schedule: Q01DX009 (ip), vehicle: gum acacia
  T/C: 109 % of control
dose: 200.0 mg/kg/injection, schedule: Q01DX009 (ip), vehicle: gum acacia
  T/C: 109 % of control

## Nc1nc(N)c(Cl)c(Nc2cccc(Cl)c2)n1
dose: 6.25 mg/kg/injection, schedule: Q01DX001 (ip), vehicle: saline with Tween-80
  T/C: 94 % of control

## COC(=O)CC(O)CCCCCCCCCCCCC(C)C (configuration not stated)
dose: 8.75 mg/kg/injection, schedule: Q01DX005 (ip), vehicle: Klucel + Tween-80
  T/C: 92 % of control
dose: 17.5 mg/kg/injection, schedule: Q01DX005 (ip), vehicle: Klucel + Tween-80
  T/C: 100 % of control
dose: 35.0 mg/kg/injection, schedule: Q01DX005 (ip), vehicle: Klucel + Tween-80
  T/C: 97 % of control

Reference: PubChem BioAssay AID330 (DTP/NCI, 2004)
